According to paper PMC9421653 (Journal of Medicinal Chemistry, 2022):
In brackets after ≈: the same amount, converted by molar mass. Entries after “also recorded” stand apart in the source; their conditions may differ.

What was measured:
[1] = biological target: T1, human GPR84 (Homo sapiens, UniProt P04899+Q9NQS5); assay: biochemical; format: biochemical; conditions: [35S]GTPγS assay; negative log of the IC50 in molar; mean ± SEM
T1 construct: expressed in transfected cells; host or cells: Flp-In T-REx 293 cells, doxycycline-induced; membrane preparations

[2] = biological target: T2, human FFAR2 (Homo sapiens, UniProt O15552); assay: [35S]GTPγS binding, block of C3 (propionate) at FFAR2; format: biochemical; conditions: tested at 10 μM
T2 construct: expressed in transfected cells; host or cells: Flp-In T-REx 293 cells, induced; membrane preparations
T2 sequence (O15552 1-330): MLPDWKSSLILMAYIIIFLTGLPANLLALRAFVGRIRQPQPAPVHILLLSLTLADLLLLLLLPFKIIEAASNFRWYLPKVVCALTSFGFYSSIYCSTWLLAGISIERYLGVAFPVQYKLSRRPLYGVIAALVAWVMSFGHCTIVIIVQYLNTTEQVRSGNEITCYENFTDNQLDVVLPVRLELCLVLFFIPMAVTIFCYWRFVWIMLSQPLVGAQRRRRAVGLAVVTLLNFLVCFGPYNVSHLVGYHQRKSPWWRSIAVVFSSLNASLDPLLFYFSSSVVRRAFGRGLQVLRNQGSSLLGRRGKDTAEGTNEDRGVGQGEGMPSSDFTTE

[3] = biological target: T3, human FFAR3 (Homo sapiens, UniProt O14843); assay: [35S]GTPγS binding, block of C3 (propionate) at FFAR3; format: biochemical; conditions: tested at 10 μM
T3 construct: expressed in transfected cells; host or cells: Flp-In T-REx 293 cells, induced; membrane preparations
T3 sequence (O14843 1-346): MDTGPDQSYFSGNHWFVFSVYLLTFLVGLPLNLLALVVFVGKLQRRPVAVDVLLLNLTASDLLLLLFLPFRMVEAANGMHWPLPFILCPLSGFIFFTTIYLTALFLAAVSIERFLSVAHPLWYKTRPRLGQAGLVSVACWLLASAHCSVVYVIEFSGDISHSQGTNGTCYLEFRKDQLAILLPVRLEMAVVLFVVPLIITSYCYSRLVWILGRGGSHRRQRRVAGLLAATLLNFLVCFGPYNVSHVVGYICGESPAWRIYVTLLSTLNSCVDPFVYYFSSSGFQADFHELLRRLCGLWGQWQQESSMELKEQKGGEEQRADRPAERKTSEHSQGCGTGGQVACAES

[4] = system: mouse GPR84; conditions: cited from earlier work
[5] = biological target: GPR84-Gαi2 fusion protein, Phe101Ala (Homo sapiens, UniProt Q9NQS5, F101A); assay: [35S]GTPγS binding, GPR84-Gαi2 fusion protein, Phe101Ala; conditions: Phe101 to Ala, versus wild type
[6] = biological target: GPR84-Gαi2 fusion protein, Phe335Ala (Homo sapiens, UniProt Q9NQS5, F335A); assay: [35S]GTPγS binding, GPR84-Gαi2 fusion protein, Phe335Ala; conditions: Phe335 to Ala, versus wild type
[7] = biological target: GPR84-Gαi2 fusion protein, Trp360Ala (Homo sapiens, UniProt Q9NQS5, W360A); assay: [35S]GTPγS binding, GPR84-Gαi2 fusion protein, Trp360Ala; conditions: Trp360 to Ala, versus wild type
[8] = Log D7.4 (distribution coefficient); format: physicochemical; conditions: pH 7.4
[9] = physchem
Excerpt: DPI = 4,5-Diphenylimidazole
(2 pictures or pasted objects on this page, not shown here)

[10] = Mouse hepatocyte stability; format: in vitro ADME; conditions: hepatocytes, read-out: mouse heps t1/2
[11] = system: mouse plasma protein; assay: Mouse plasma protein binding; format: in vitro ADME
[12] = In vivo mouse PK, IV dosing; conditions: IV (1 mg/kg), CV % in parenthesis
Protocol: (§1) Mouse pharmacokinetic studies were carried out by Xenogesis Ltd. (Nottingham, U.K.). All life phases were conducted in accordance with the local Ethics Review process.
(§2) Male C57BL/6J mice (n = 3, Charles River, U.K.) were intravenously administered with a dose of 1 mg/kg of the appropriate compound (formulation 5% v/v DMSO in 20% w/v HPCD in water). […] Plasma concentrations were determined by LC/MS/MS. LC/MS/MS analysis was performed using a Thermo TSQ Quantiva with Thermo Vanquish UPLC system on a Luna Omega C18 column. The plasma concentrations were simulated by nonparametric analysis from the plasma concentrations obtained in the PK study using Phoenix WinNonlin.

[13] = In vivo mouse PK, PO dosing; conditions: for Tmax / AUCall / Cmax: PO (10 mg/kg); for AUCall / Cmax / bioavailability: CV % in parenthesis; for bioavailability: male, C57BL/6J, plasma, PO (10 mg/kg) vs IV (1 mg/kg)
Protocol: as §1
as §2, with “were orally” for “were intravenously”, “of 10” for “of 1”, “(formulation 0.5%” for “(formulation 5% v/v DMSO in 20%”, “w/v methylcellulose” for “w/v HPCD”

[14] = in vitro; conditions: human, microsomes
[15] = Mouse plasma protein binding; format: in vitro ADME; conditions: read-out: mouse PPB
[16] = pH 7.4, Kinetic Solubility, R=1, PBS pH7.4 in 2% DMSO by plate reader, replicate 1
[17] = pH 7.4, Kinetic Solubility, R=2, PBS pH7.4 in 2% DMSO by plate reader, replicate 2
[18] = pH 7.4, kinetic solubility, PBS pH7.4 in 2% DMSO

T1 sequence (Q9NQS5+P04899 fused): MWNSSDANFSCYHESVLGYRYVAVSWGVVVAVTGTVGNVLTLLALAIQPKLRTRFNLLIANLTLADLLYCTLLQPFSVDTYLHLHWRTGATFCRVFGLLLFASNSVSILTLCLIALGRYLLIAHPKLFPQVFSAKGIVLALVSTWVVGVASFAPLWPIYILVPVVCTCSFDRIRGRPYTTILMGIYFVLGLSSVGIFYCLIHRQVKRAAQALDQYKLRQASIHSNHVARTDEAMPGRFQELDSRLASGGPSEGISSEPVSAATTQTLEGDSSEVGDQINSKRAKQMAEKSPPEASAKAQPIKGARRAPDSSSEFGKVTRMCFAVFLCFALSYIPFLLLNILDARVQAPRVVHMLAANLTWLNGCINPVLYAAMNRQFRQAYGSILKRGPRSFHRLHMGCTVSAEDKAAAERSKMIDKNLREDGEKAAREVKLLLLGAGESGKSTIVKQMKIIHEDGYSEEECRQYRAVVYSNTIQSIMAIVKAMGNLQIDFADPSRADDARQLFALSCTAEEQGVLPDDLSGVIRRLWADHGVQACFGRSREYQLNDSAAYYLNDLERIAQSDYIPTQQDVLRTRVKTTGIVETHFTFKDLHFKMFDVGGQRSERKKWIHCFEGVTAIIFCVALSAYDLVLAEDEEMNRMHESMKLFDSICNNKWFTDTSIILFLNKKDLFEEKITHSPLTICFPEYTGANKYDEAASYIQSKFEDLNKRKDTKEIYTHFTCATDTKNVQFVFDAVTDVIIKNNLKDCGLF
Sequence of GPR84-Gαi2 fusion protein, Phe101Ala (Q9NQS5 whole entry F101A, the tested form may be a part): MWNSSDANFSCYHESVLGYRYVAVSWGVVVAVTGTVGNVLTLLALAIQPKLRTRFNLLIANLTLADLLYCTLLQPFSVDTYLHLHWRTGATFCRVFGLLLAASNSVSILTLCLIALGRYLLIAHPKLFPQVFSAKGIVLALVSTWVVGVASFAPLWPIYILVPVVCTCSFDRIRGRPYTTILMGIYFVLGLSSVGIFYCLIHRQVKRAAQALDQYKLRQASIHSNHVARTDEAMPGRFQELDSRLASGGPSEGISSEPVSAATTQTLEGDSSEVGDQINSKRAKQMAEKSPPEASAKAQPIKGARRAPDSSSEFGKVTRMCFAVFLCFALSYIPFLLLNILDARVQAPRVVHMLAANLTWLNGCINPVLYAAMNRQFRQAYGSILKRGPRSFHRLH
Sequence of GPR84-Gαi2 fusion protein, Phe101Ala (P04899 2-355 partner): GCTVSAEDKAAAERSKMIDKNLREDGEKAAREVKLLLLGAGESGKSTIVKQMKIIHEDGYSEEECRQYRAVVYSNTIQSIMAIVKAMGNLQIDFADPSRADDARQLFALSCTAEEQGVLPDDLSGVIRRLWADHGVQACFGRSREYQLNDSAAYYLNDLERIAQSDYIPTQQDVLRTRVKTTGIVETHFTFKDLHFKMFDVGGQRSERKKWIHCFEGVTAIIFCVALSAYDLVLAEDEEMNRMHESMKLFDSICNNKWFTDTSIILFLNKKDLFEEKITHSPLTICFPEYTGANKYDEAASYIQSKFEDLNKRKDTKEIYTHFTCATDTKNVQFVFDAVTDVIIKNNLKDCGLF
Sequence of GPR84-Gαi2 fusion protein, Trp360Ala (Q9NQS5 whole entry W360A, the tested form may be a part): as the sequence (Q9NQS5 whole entry F101A, the tested form may be a part) above, with A101F, W360A counted along it
Sequence of GPR84-Gαi2 fusion protein, Trp360Ala (P04899 2-355 partner): as the sequence (P04899 2-355 partner) above
Sequence of GPR84-Gαi2 fusion protein, Phe335Ala (Q9NQS5 whole entry F335A, the tested form may be a part): as the sequence (Q9NQS5 whole entry F101A, the tested form may be a part) above, with A101F, F335A counted along it
Sequence of GPR84-Gαi2 fusion protein, Phe335Ala (P04899 2-355 partner): as the sequence (P04899 2-355 partner) above

SMILES	GTPγS (pIC50) [1]	block of the actions of the C3 fatty acid propionate at FFAR2 [2]	block of the actions of the C3 fatty acid propionate at FFAR3 [3]	logD [8]	solubility kinetic [9, 16]	solubility kinetic [9, 17]	solubility kinetic [9, 18]	half-life [10]	mouse PPB [11]	AUCall [12]	C0 [12]	CL [12]	Vss [12]	half-life [12]	Tmax [13]	AUCall [13]	Cmax [13]	bioavailability [13]	half-life [14]	fraction unbound [15]	other results
COc1ccc(-c2nnc(Cc3c[nH]c4ccccc34)nc2-c2ccc(OC)cc2)cc1 [Compound 1, 3-((5,6-Bis(4-methoxyphenyl)-1,2,4-triazin-3-yl)methyl)-1H-indole]	7.93 ± 0.21	no ability to block; also recorded: did not block	no ability to block; also recorded: did not block	–	–	–	–	–	–	–	–	–	–	–	–	–	–	–	–	–	antagonism of mouse GPR84 [4]: unable to antagonize; affinity to block effects of the allosteric agonist PSB-16671 [5]: substantial loss of affinity; affinity to block effects of the allosteric agonist PSB-16671 [6]: substantial loss of affinity; affinity to block effects of the allosteric agonist PSB-16671 [7]: substantial loss of affinity
c1ccc(-c2nc(Cc3c[nH]c4ccccc34)nnc2-c2ccc(CN3CCOCC3)cc2)cc1 [Compound 42, 4-(4-(3-((1H-Indol-3-yl)methyl)-5-phenyl-1,2,4-triazin-6-yl)benzyl)morpholine]	8.28 ± 0.11	no ability to block; also recorded: did not block	no ability to block; also recorded: did not block	3.84	12 µM (≈ 5.54 µg/mL)	16 µM (≈ 7.39 µg/mL)	14 µM (≈ 6.46 µg/mL)	16 min	<1 %free	420 (12.5) ng/mL·h	394 (19.1) ng/mL	38.9 (13.9) mL/min/kg	7.24 (9.2) L/kg	2.51 (6.55) h	60 min	1590 (18.7) ng/mL·h	402 (31.8) ng/mL	36.8%	12.8 min	–	–
O=C(NCCO)c1ccc(-c2nnc(Cc3c[nH]c4ccccc34)nc2-c2ccccc2)cc1 [Compound 76, 4-(3-((1H-Indol-3-yl)methyl)-5-phenyl-1,2,4-triazin-6-yl)-N-(2-hydroxyethyl)benzamide]	7.46 ± 0.07	no ability to block; also recorded: did not block	no ability to block; also recorded: did not block	3.09	59 µM (≈ 26.5 µg/mL)	62 µM (≈ 27.9 µg/mL)	61 µM (≈ 27.4 µg/mL)	47.3 min	–	757 (10.8) ng/mL·h	1170 (29.6) ng/mL	22.0 (11.3) mL/min/kg	1.81 (15.2) L/kg	1.22 (13.5) h	60 min	3160 (8.82) ng/mL·h	1080 (16.1) ng/mL	41.5%	57.2 min	0.011	–
c1ccc(-c2nnc(Cc3c[nH]c4ccccc34)nc2-c2ccccc2)cc1 [Compound 4, 3-((5,6-Diphenyl-1,2,4-triazin-3-yl)methyl)-1H-indole]	–	no ability to block; also recorded: did not block	no ability to block; also recorded: did not block	4.24	–	–	1.4 µM (≈ 0.507 µg/mL)	4.4 min	<1 %free	–	–	–	–	–	–	–	–	–	21.8 min	–	solubility kinetic ([9]; pH 7.4, Kinetic Solubility, R=1, PBS pH7.4 in 2% DMSO by LC-MS, replicate 1): 1.5 µM (≈ 0.544 µg/mL); solubility kinetic ([9]; pH 7.4, Kinetic Solubility, R=2, PBS pH7.4 in 2% DMSO by LC-MS, replicate 2): 1.3 µM (≈ 0.471 µg/mL)
CNC(=O)c1ccc(-c2nnc(Cc3c[nH]c4cnccc34)nc2-c2ccccc2)cc1 [Compound 68, 4-(3-((1H-Pyrrolo[2,3-c]pyridin-3-yl)methyl)-5-phenyl-1,2,4-triazin-6-yl)-N-methylbenzamide]	7.29 ± 0.05	–	–	2.71	149 µM (≈ 62.7 µg/mL)	143 µM (≈ 60.1 µg/mL)	146 µM (≈ 61.4 µg/mL)	12.5 min	–	–	–	–	–	–	–	–	–	–	39.9 min	0.038	–
